Results taken from patent US5382586A, “Aryl (or heteroaryl)piperazinylalkylazole derivatives, their preparation and their application as medicaments” (priority 1991, dated 1995).

Experiments:
[1] = tested on: norepinephrine-induced death in rats; experiment: norepinephrine antagonism test in rats (antihypertensive activity); type: in vivo, rat (male Wister); conditions: for Activity % (norepinephrine antagonistic antihypertensive activity): D = 40 mg/kg, i.p., rat, norepinephrine 1.25 mg/kg i.v. after 2 hours; for ED50: Rattus norvegicus, ip, 2 h, read-out: ED50 (norepinephrine antagonistic antihypertensive activity)
Protocol: This activity is manifested by the protection of animals before death induced by an intravenous injection of norepinephrine, which produces a hypertensive attack in rats.
Male Wister rats weighing 200 grammes are used in this test. The product to be studied is administered intraperitoneally and 1.25 mg/kg (i.v.) of norepinephrine are administered after 2 hours.
The initial administration dose in these studies is 40 mg/kg (i.p.).

[2] = tested on: conditioned avoidance response in male Wistar rats; experiment: conditioned avoidance response test (inhibition of the conditioned avoidance response; anxiolytic/tranquillising activity); type: in vivo, rat (male Wistar); conditions: rat; for Activity % (inhibition of the conditioned avoidance response): D = 80 mg/kg, p.o., 45 min before test; for ED50: po, 0.75 h
Protocol: Male Wistar rats weighing 200 grammes which have been trained to jump over a barrier in an avoidance and escape cage (shuttle box) (Letica, reference LI 910 and LI 2700) within 30 seconds of their being introduced into the cage are used in this test.
The products having an anxiolytic or tranquillising activity suppress the conditioned avoidance response.
Training: day one: 11 trials at 3 minute intervals. Electric shock to the paws after 30 seconds (5 mA, 0.1 s, 10 s).
Days two and three: 2 trials per day, with the selected rats only [sum of the scores for the first day (with the exception of the first trial)>14].
Test day: groups formed by selected rats. Oral administration of the product or the vehicle 45 minutes before the start of the study.

Structure (SMILES)	Activity % (norepinephrine antagonistic antihypertensive activity) [1] [%]	Activity % (inhibition of the conditioned avoidance response) [2] [%]	ED50 [2] [mg/kg]	ED50 [1] [mg/kg]
Cc1nc(-c2ccccc2)c(-c2ccccc2)n1CCCCN1CCN(c2ncccn2)CC1 [Example 10]	0	38		
Cc1nc(Cl)c(Cl)n1CCCCN1CCN(c2ncccn2)CC1 [Example 11, 4,5-dichloro-2-methyl-1-{4-[4-(2-pyrimidinyl)-1-piperazinyl]-butyl}-1H-imidazole]	0	82		
CCc1nccn1CCCCN1CCN(c2ncccn2)CC1 [Example 12]	0	46		
c1ccc(-c2nccn2CCCCN2CCN(c3ncccn3)CC2)cc1 [Example 13]	0	70	17.1	
COC(=O)c1cn(CCCCN2CCN(c3ncccn3)CC2)cn1 [Example 14]	0	38		
c1ccc(-c2cn(CCCCN3CCN(c4ncccn4)CC3)cn2)cc1 [Example 15]	0	73	28	
c1cnc(N2CCN(CCCCn3cnc4ccccc43)CC2)nc1 [Example 16, 1-{4-[4-(2-pyrimidinyl)-1-piperazinyl]-butyl}-1H-benzimidazole]	0	100	6.1	
c1cnc(N2CCN(CCCCn3cnc4cccnc43)CC2)nc1 [Example 17, 1-{4-[-4-(2-pyrimidinyl)-1-piperazinyl]-butyl}-3H-imidazo[5,4-b]pyridine]	0	86	21.9	
c1cnc(N2CCN(CCCCn3cnc4ncccc43)CC2)nc1 [Example 18, 1-{4-[4-(2-pyrimidinyl)-1-piperazinyl]-butyl}-1H-imidazo[4,5-b]pyridine]	100	91	25.6	3.97
c1cnc(N2CCN(CCCCn3nnc4ccccc43)CC2)nc1 [Example 19]	0	99		
Clc1nc2ccccc2n1CCCCN1CCN(c2ncccn2)CC1 [Example 20]	0	77	15.4	
Clc1ccc2c(c1)ncn2CCCCN1CCN(c2ncccn2)CC1 [Example 21]	0	100	9.3	
Clc1ccc2ncn(CCCCN3CCN(c4ncccn4)CC3)c2c1 [Example 22]	0	100	9.1	
c1cnc(N2CCN(CCCCn3cncn3)CC2)nc1 [Example 23]	50	100	6.3	
c1cnc(N2CCN(CCCCn3nc4ccccc4n3)CC2)nc1 [Example 24]	50	87		
Cc1nc2ccccc2n1CCCCN1CCN(c2ncccn2)CC1 [Example 25]	25	52	61.7	
Cc1cc2ncn(CCCCN3CCN(c4ncccn4)CC3)c2cc1C [Example 26]	0	88	34.5	

Structure (SMILES)	Activity % (norepinephrine antagonistic antihypertensive activity) [1] [%]	Activity % (inhibition of the conditioned avoidance response) [2] [%]	ED50 [2] [mg/kg]	ED50 [1] [mg/kg]
COc1ccc(N2CCN(CCCCn3cc(Cl)cn3)CC2)cc1 [Example 27]	0	88		
COc1ccc(N2CCN(CCCCn3c(C)nc(Cl)c3Cl)CC2)cc1 [Example 28]	100	75	37.5	14
COc1ccccc1N1CCN(CCCCn2cc(Cl)cn2)CC1 [Example 29]	100	100	8.9	0.46
COc1ccccc1N1CCN(CCCCn2c(C)nc(Cl)c2Cl)CC1 [Example 30]	100	95	12.8	0.18
COc1cccc(N2CCN(CCCCn3cc(Cl)cn3)CC2)c1 [Example 31]	0	100	20.8	8.9
COc1ccc(N2CCN(CCCCn3cccc3)CC2)cc1 [Example 32]	0	83	50	
COc1ccccc1N1CCN(CCCCn2cccc2)CC1 [Example 33]	100	99	23.9	2.23
c1ccc(N2CCN(CCCCn3cccc3)CC2)cc1 [Example 34]	100	96	23.7	10
Clc1cnn(CCCCN2CCN(c3ccccc3)CC2)c1 [Example 35, 4-chloro-1-[4-(4-phenyl-1-piperazinyl)-butyl]-1H-pyrazole]	100	100	20.7	4.1
Cc1nc(Cl)c(Cl)n1CCCCN1CCN(c2ccccc2)CC1 [Example 36]	100	76	42	7.6
Clc1cnn(CCCCN2CCN(c3ccccc3Cl)CC2)c1 [Example 37]	100	86	29.5	1.9
Cc1nc(Cl)c(Cl)n1CCCCN1CCN(c2ccccc2Cl)CC1 [Example 38]	100	78		1.3
Clc1cccc(N2CCN(CCCCn3cc(Cl)cn3)CC2)c1 [Example 39]	0	100		
Cn1ccnc1N1CCN(CCCCn2cccn2)CC1 [Example 40]	0	28		
COc1ccccc1N1CCN(CCn2cc(Cl)cn2)CC1 [Example 41]	75	52		5
Clc1cnn(CCCCN2CCN(c3nsc4ccccc34)CC2)c1 [Example 43]	66	100		
Cc1nc(Cl)c(Cl)n1CCCCN1CCN(c2nsc3ccccc23)CC1 [Example 44]	100	95		
